Tested on: K12877-001-R-J1-PDC complex spheroid viability
Experiment: Anticancer human tumor K12877-001-R-J1-PDC patient-derived lung adenocarcinoma cell line growth inhibition [RAS]
Conditions: for IC50: curve of first compound; for viability, T/C: stronger effect = lower value; active means viability on the fitted dose curve at most 10% of control; inactive means the rest
From the text: RAS pathway inhibitors in Combinations in Complex Spheroids
A high-throughput screen of multi-cell type tumor spheroids was designed to identify active combinations of RAS pathway inhibitors and targeted small molecules. Complex spheroids include a stromal component modeled by human endothelial cells (HUVEC) and fibroblasts modeled by human mesenchymal stem cells (MSCs). The concentration ranges selected for each drug and investigational agent were based upon clinically achievable concentrations if the clinical Cmax of the agent was known.
Compounds. The drugs and investigational agents: abemaciclib (NSC768073), cobimetinib (NSC768068), divarasib (GDC6063, NSC841802), docetaxel (NSC628503), GDC-1971 (RLY-1971, NSC841576), gemcitabine (NSC613327), inavolisib (NSC800729), ipatasertib (NSC767898), KB-0742 (NSC834161), MRTX-1133 (NSC836407), osimertinib (NSC779217), RMC-4630 (NSC839698), RMC-6236 (NSC851965), RMC-6291 (NSC852671), Ro-3306 (NSC812927), sapanisertib (NSC764658), SN-38 (NSC673596), staurosporine (NSC755774), SY5609 (NSC837396), and tovorafenib (DAY101, NSC766906), were obtained from the National Cancer Institute (NCI) Developmental Therapeutics Program Chemical Repository. The FDA-approved anticancer drug set is available from the NCI Developmental Therapeutics Program. […] The stock solutions were prepared in dimethyl sulfoxide (DMSO, Sigma-Aldrich, St. Louis, MO, cat. D2650) at 800-fold the tested concentration and stored at -70 degrees C prior to their use. All drugs and investigational agents were tested over a range starting from a high concentration at or near the clinical Cmax and decreasing in half-log increments. If the clinical Cmax for an agent had not been determined, the highest concentration tested was 10 microM.
Cell Culture. All cells were maintained in an incubator at 37 degrees C and 5% CO2 with 95% humidity. The PDC lines were cultured according to standard operating procedures established by the NCI PDMR. All PDCs were thawed and cultured in Matrigel-coated flasks prepared with a working solution of 1X Ham's F-12 nutrient mix, without supplementation (Invitrogen, Waltham, MA, cat. 11765054), 100 U/mL penicillin-streptomycin (Invitrogen, cat. 15140122), and 2.5% Matrigel (Corning Inc., Corning, NY, cat. 354248) for the first three passages. The 362531-283-R-J2-PDC and 782815-120-R-J1-PDC lines were cultured in 6C/Colon 1B media, which includes advanced DMEM/F-12 (Thermo Fisher Scientific, cat. 12634028), 10 mM HEPES (Thermo Fisher Scientific, cat. 15630080), 1X GlutaMAX supplement (Thermo Fisher Scientific, cat. 35050061), 0.1 mg/mL primocin (InvivoGen, San Diego, CA, cat. ant-pm-2), 10% defined fetal bovine serum, heat inactivated (HyClone Laboratories Inc., Logan, UT, cat. SH30070.03HI), 50% L-WRN conditioned media (ATCC, cat. CRL-3276), 1.25 mM N-Acetyl-L-cysteine (Sigma-Aldrich, cat. A9165), 10 mM nicotinamide (Sigma-Aldrich, cat. N0636), 1X B-27 supplement (Thermo Fisher Scientific, cat. 17504044), 1X N-2 supplement (Thermo Fisher Scientific, cat. 17502048), 50 ng/mL human EGF (Thermo Fisher Scientific, cat. PHG0311), and 10 microM Y-27632 dihydrochloride (Tocris Bioscience, cat. 1254). The K12877-001-R-J1-PDC line was cultured in 6I media, which includes all 6C/Colon 1B media plus 10 ng/mL human FGF-10 (PeproTech, cat. 100-26), 1 ng/mL human FGF-2 (PeproTech, cat. 100-18B), 1 µM prostaglandin E2 (Tocris Bioscience, cat. 2296), […] hydrocortisone (Sigma-Aldrich, cat. H4001), and […] bovine insulin (Sigma-Aldrich, cat. I6634). The K86415-001-R-J1-PDC line was cultured in 6D media, which includes all 6C/Colon 1B media components minus the L-WRN conditioned media. The 485176-168-R4-J1-PDC was cultured in PANC media, which includes all 6C/Colon 1B media plus 100 ng/mL human FGF-10 (PeproTech, cat. 100-26), 500 nM SB-431542 (Selleckchem, cat. S1067), and 10 nM gastrin (Tocris Bioscience, cat. 3006). […]
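Further: spheroids exposed to agents for one week before readout.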

CCC(CC)c1cc(NC2CCC(N)C2)n2nccc2n1 (configuration not stated) + C=CC(=O)N1CCN(c2nc(OCC3CCCN3C)nc3c(F)c(-c4nc(N)cc(C)c4C(F)(F)F)c(Cl)cc23)C(C)C1
active: viability, T/C (second compound 0.00316 µM, first compound 3.16 µM) 2.45% | viability, T/C (second compound 0.00316 µM, first compound 10 µM) 0.94% | viability, T/C (second compound 0.01 µM, first compound 3.16 µM) 2.11% | viability, T/C (second compound 0.01 µM, first compound 10 µM) 0.91% | viability, T/C (second compound 0.0316 µM, first compound 3.16 µM) 2.25% | viability, T/C (second compound 0.0316 µM, first compound 10 µM) 1.53% | viability, T/C (second compound 0.1 µM, first compound 3.16 µM) 1.91% | viability, T/C (second compound 0.1 µM, first compound 10 µM) 0.93% | viability, T/C (second compound 0.316 µM, first compound 3.16 µM) 2.48% | viability, T/C (second compound 0.316 µM, first compound 10 µM) 0.97% | viability, T/C (second compound 1 µM, first compound 3.16 µM) 1.96% | viability, T/C (second compound 1 µM, first compound 10 µM) 1.06%
1.44 µM: IC50 (second compound 1 µM)
1.48 µM: IC50 (second compound 0.316 µM)
inactive: viability, T/C (second compound 0.00316 µM, first compound 0.0316 µM) 97% | viability, T/C (second compound 0.00316 µM, first compound 0.1 µM) 94.7% | viability, T/C (second compound 0.00316 µM, first compound 0.316 µM) 98% | viability, T/C (second compound 0.00316 µM, first compound 1 µM) 89.6% | viability, T/C (second compound 0.01 µM, first compound 0.0316 µM) 91.2% | viability, T/C (second compound 0.01 µM, first compound 0.1 µM) 99.4% | viability, T/C (second compound 0.01 µM, first compound 0.316 µM) 93.2% | viability, T/C (second compound 0.01 µM, first compound 1 µM) 71.3% | viability, T/C (second compound 0.0316 µM, first compound 0.0316 µM) 99.3% | viability, T/C (second compound 0.0316 µM, first compound 0.1 µM) 95.7% | viability, T/C (second compound 0.0316 µM, first compound 0.316 µM) 86.2% | viability, T/C (second compound 0.0316 µM, first compound 1 µM) 81.5% | viability, T/C (second compound 0.1 µM, first compound 0.0316 µM) 85.2% | viability, T/C (second compound 0.1 µM, first compound 0.1 µM) 78.3% | viability, T/C (second compound 0.1 µM, first compound 0.316 µM) 83.4% | viability, T/C (second compound 0.1 µM, first compound 1 µM) 70% | viability, T/C (second compound 0.316 µM, first compound 0.0316 µM) 88.3% | viability, T/C (second compound 0.316 µM, first compound 0.1 µM) 91.9% | viability, T/C (second compound 0.316 µM, first compound 0.316 µM) 86.3% | viability, T/C (second compound 0.316 µM, first compound 1 µM) 74.7% | viability, T/C (second compound 1 µM, first compound 0.0316 µM) 86.2% | viability, T/C (second compound 1 µM, first compound 0.1 µM) 80.6% | viability, T/C (second compound 1 µM, first compound 0.316 µM) 94.8% | viability, T/C (second compound 1 µM, first compound 1 µM) 72.5%
1.43 µM: IC50 (second compound 0.01 µM)
1.69 µM: IC50 (second compound 0.00316 µM)
1.4 µM: IC50 (second compound 0.1 µM)
1.58 µM: IC50 (second compound 0.0316 µM)

— PubChem BioAssay AID2060894 (Molecular Pharmacology Branch, DTP, NCI, 2025)
